From US20210393793A1, “AXL-SPECIFIC ANTIBODIES FOR TREATMENT OF NON-SMALL CELL LUNG CANCER” (priority 2018, published 2021)
“Also recorded” adds a separate entry of the source.

Legend:
[1] = system: non-small cell lung andenocarcinoma patients; experiment: Subject examples: treatment emerging events; type: in vivo, human; settings: listed as enapotamab vendotin
Description: (§1) Primary Endpoints • Dose Limiting Toxicities (DLTs) • Adverse events (AEs): incidences of AEs, serious adverse events (SAEs), infusion-related AEs, grade 3 AEs, and AEs related to IMP during the trial.

[2] = system: NSCLC patients without sensitizing EGFR mutations or ALK rearrangements; experiment: Expansion cohort 2: response (RECIST v1.1); type: in vivo, human
Description: (§2) Patients had to meet all of the following inclusion criteria before they will be allowed to participate in the trial: • 1. For the dose escalation part: Patients with relapsed or refractory cancer of the ovary, cervix, endometrium, thyroid, non-small cell lung cancer (NSCLC), or melanoma (cutaneous, mucosal, acral or uveal melanoma) who have failed available standard therapy or who are not candidates for standard therapy, and for whom, in the opinion of the investigator, experimental therapy with HuMax-AXL-ADC may be beneficial. • For the expansion part: Patients with relapsed or refractory, advanced and/or metastatic cancer who were not candidates for standard therapy, and for whom, in the opinion of the investigator, experimental therapy with HuMax-AXL-ADC could be beneficial. […] Cohorts 1 and 2 included non-small cell lung cancer patients who had failed anticancer therapy as follows: • Expansion Cohort 1 (NSCLC patients with classical sensitizing EGFR mutations and/or other EGFR resistance mutations targeted by third generation TKIs (e.g. T790M for osimertinib)): • NSCLC patients after failure of up to 4 prior treatment regimens containing systemic therapy for metastatic disease • adjuvant and maintenance treatment is considered being part of one treatment regimen. • Documented progressive disease on or after last prior treatment • Last prior treatment to enrolment to GCT1021-01 should have been: • an EGFR inhibitor (e.g. Erlotinib, Osimertinib, etc.), • or a PD-1/PD-L1 inhibitor, • or a platinum-based doublet chemotherapy. • Expansion Cohort 2 (NSCLC patients without sensitizing EGFR mutations or ALK rearrangements) • NSCLC patients after failure of up to 4 prior treatment regimens containing systemic therapy for metastatic disease. • adjuvant and maintenance treatment is considered being part of one treatment regimen. • Documented progressive disease on or after last prior treatment. • Last prior treatment to enrolment to GCT1021-01 should have been • a PD-1/PD-L1 inhibitor. • or a chemotherapy (containing platinum, and/or taxane, and/or pemetrexed, and/or gemcitabine). • For the following conditions in Expansion Cohorts 1-2, the sponsor medical officer's approval of enrolment was needed: • if documented progression had not been on measurable disease (i.e. symptomatic progression). • if last prior treatment to enrolment was a combination therapy which contained an EGFR inhibitor or a PD-1/PD-L1 inhibitor. • if last prior treatment to enrolment contain chemotherapies other than platinum, and/or taxane, and/or pemetrexed, and/or gemcitabine (only applicable for NSCLC patients without sensitizing EGFR mutations or ALK rearrangements). • 2. […] In the dose escalation part all patients were required provide a tumor tissue sample (Formalin Fixed Paraffin Embedded blocks/slides) from archival tissue or fresh biopsy collected before Cycle 1, Visit 1, preferably derived from advanced disease stage. In the expansion part all patients were required to provide a fresh biopsy (aspirates were not acceptable) taken after failure/stop of last prior treatment. Furthermore the latest available tumor tissue sample had to be collected if available. • 4. Age 18 years. • 5. Have an acceptable renal function defined as: • Glomerular filtration rate (GFR)≥40 mL/min/1.73 m^2—e.g., according to the abbreviated Modification of Diet in Renal Disease (MDRD) equation: GFR=186×(SCr^−1.154)×(age^−0.203)(where SCr, the serum creatinine level, is expressed in mg/dL; multiply it by 0.742 if the patient was female; multiply it by 1.212, if the patient was African-American^3). • Not being on dialysis. • 6. Have an acceptable liver function defined as: • Alanine aminotransferase (ALT) and aspartate aminotransferase (AST)≤3 times the ULN; if liver tumor/metastases were present, then ≤5×ULN was allowed. • Bilirubin≤1.5×ULN, except in patients diagnosed with Gilbert's syndrome, direct bilirubin≤2×ULN. • 7. […]

cynomolgus monkeys = experiment: Toxicokinetic and toxicology data in cynomolgus monkeys; type: in vivo
[3] = system: non-small cell lung andenocarcinoma; experiment: Subject examples: tumor assessments by scan (RECIST 1.1); type: in vivo, human
Description: (§3) Response in solid tumor cancers was assessed in accordance with the RECIST criteria version 1.1^18 and for patients with ovarian cancer according to RECIST 1.1 in combination with CA 125 as defined by the Gynecological Cancer Intergroup^2.
Tumor shrinkage (based on CT-scan evaluations) was listed and summarized, per source (radiologist, central read).

[4] = system: patients with solid tumors; experiment: Dose escalation: anti-tumor response (RECIST v1.1); type: in vivo, human; settings: for patients with a partial response: 1Q3W arm
Description: (§4) Secondary Endpoints • Safety laboratory parameters (hematology and biochemistry). • PK parameters (clearance, volume of distribution and area-under-the-concentration-time curve [AUC0-Clast and AUC0-∞], maximum concentration [Cmax], time of Cmax [Tmax], pre dose values, and half-life of HuMax-AXL-ADC and free toxin monomethyl auristatin E [MMAE]). • Immunogenicity of HuMax-AXL-ADC (anti-drug antibodies). • Anti-tumor activity measured by tumor shrinkage (based on computerized tomography [CT]-scan evaluations), as well as change in CA 125 in patients with ovarian cancer and change in prostate specific antigen (PSA) in patients with castration-resistant prostate cancer (CRPC). • Objective Response, Progression-Free Survival (PFS), Duration of Response (DoR) and Overall survival (OS). • Axl expression in the tumor biopsy.
as §3
In the dose escalation, response evaluation was performed by the investigator and sponsor. In the expansion, response evaluation was performed by the investigator and sponsor as well as a group of external medical experts. Each patient was assigned one of the following categories:
Patients in response categories 1 and 2 were considered responders and patients in response categories 4 and 5 were considered as failing to respond to treatment (disease progression). Patients in response categories 1, 2 and 3 were considered to be in disease control.

[5] = system: patients with solid tumors; experiment: Phase I dose escalation: DLTs, MTD, RP2D, adverse events; type: in vivo, human
Description: The present study was an open label, multi-center Phase I/IIa safety trial of HuMax AXL ADC in a mixed population of patients with solid tumors known from the literature to overexpress Axl and where the use of systemic tubulin inhibitors is part of Standard of Care (SoC). The trial consisted of two parts; a dose escalation part (phase I, first-in-human (FIH)) and an expansion part (phase IIa).
The dose escalation part consists of two, staggered, arms for identification of the most optimal dosing regimen: • 1Q3W: Dosing once every 3 weeks • 3Q4W: Weekly dosing for 3 weeks followed by one treatment-free week.
The 1Q3W dose escalation evaluated HuMax-AXL-ADC at seven main dose levels: 0.3, 0.6, 1.0, 1.5, 2.0, 2.4 and 2.8 mg/kg, and 4 optional intermediate dose levels 1.25, 1.8, 2.2 and 2.6 mg/kg. Further escalation with steps of 0.4 mg/kg and de-escalation by 0.2 mg/kg was allowed, if the MTD had not been declared at a dose level up to 2.8 mg/kg.
In the 1Q3W dose escalation the patients received 1 infusion of HuMax-AXL-ADC every three weeks as according to FIG. 2.
The 3Q4W dose escalation was conducted as a standard 3 (+3) design which evaluatedHuMax-AXL-ADC at doses of (0.45), 0.6, 0.8, 1.0, 1.2 and 1.4 mg/kg. The escalation was allowed to continue to higher dose levels with increments up to 20%, if the 1.4 mg/kg was reached without significant safety concerns and it was considered safe to escalate above 1.4 mg/kg, the. The starting dose was expected to be 0.6 mg/kg (a dose level of 0.45 mg/kg could be added) and as an additional precaution, the independent Data Monitoring Committee (DMC) could recommend intermediate dose levels at any step during dose escalation.
In the 3Q4W dose escalation the patients received weekly dosing for 3 weeks followed by one treatment-free week according to FIG. 3. Patients were treated until disease progression or unacceptable toxicity was observed.
as §1

[6] = system: EGFR mutated NSCLC patients; experiment: Expansion cohort 1: response (RECIST v1.1); type: in vivo, human
Description: as §2, with “5.” for “5. Have an acceptable renal function defined as: • Glomerular filtration rate (GFR)≥40 mL/min/1.73 m^2—e.g., according to the abbreviated Modification of Diet in Renal Disease (MDRD) equation: GFR=186×(SCr^−1.154)×(age^−0.203)(where SCr, the serum creatinine level, is expressed in mg/dL; multiply it by 0.742 if the patient was female; multiply it by 1.212, if the patient was African-American^3). • Not being on dialysis. • 6. Have an acceptable liver function defined as: • Alanine aminotransferase (ALT) and aspartate aminotransferase (AST)≤3 times the ULN; if liver tumor/metastases were present, then ≤5×ULN was allowed. • Bilirubin≤1.5×ULN, except in patients diagnosed with Gilbert's syndrome, direct bilirubin≤2×ULN. • 7.”

[7] = Phase I dose escalation: PK parameters; type: in vivo, human; settings: across doses/schedules
Description: as §4

[8] = 34 patients treated in expansion
[9] = 36 patients treated with 2.2 mg/kg (escalation+expansion)
[10] = of 34 patients treated in expansion
[11] = of 36 patients treated with 2.2 mg/kg (escalation+expansion)

## Enapotamab vedotin [HuMax-AXL-ADC]
[1]; Subject 401
  Treatment emerging events (grade, relatedness): urinary tract infection (G2, unrelated); also recorded: creatinine kinase increase (fluctuating between G1 and G2, possibly related); also recorded: muscle cramps (G1, possibly related); also recorded: worsening of cough (G2, unrelated); also recorded: ALT increase and AST increase (both G1 and unrelated); also recorded: dysphonia and left leg weakness, both events reported as G1 and possibly related
[1]; Subject 403
  Treatment emerging events (grade, relatedness): two episodes of nausea (both Gland possibly related); also recorded: skin and subcutaneous tissue disorder (G1, not related); also recorded: constipation (G2, related); also recorded: two episodes of anorexia (G1, first episode unrelated, second episode possibly related); also recorded: gastroesophageal reflux (G1, not related); also recorded: alopecia (G1, related); also recorded: AST increase (G1, possibly related)
[2]; [8]
  DCR: 47%
  Objective Response Rate (ORR) (confirmed): 11%
[2]; [9]
  DCR: 50%
  ORR (confirmed): 13.8%
[2]; [10]
  patients with BoR of PD: 7
  patients with BoR of SD: 12
  patients with BoR of confirmed PR: 4
[2]; [11]
  patients with BoR of PD: 7
  patients with BoR of SD: 13
  patients with BoR of confirmed PR: 5
Cynomolgus monkeys; cynomolgus monkey, in vivo
  recovery of neutrophils, thrombocytes and red blood cell parameters: adequate recovery
Cynomolgus monkeys; cynomolgus monkeys
  safety profile: acceptable safety profile
[3]; Subject 401, C2D15
  decrease in sum of diameters compared to screening: 15%
[3]; Subject 401, C2D15, screening 26 mm
  sum of diameters of target lesions: 22 mm
[3]; Subject 401, C4D15
  decrease in sum of diameters compared to screening: 34.6%
[3]; Subject 401, C4D15, screening 26 mm
  sum of diameters of target lesions: 17 mm
[3]; Subject 401, C6D15
  decrease in sum of diameters compared to screening: 57.6%
[3]; Subject 401, C6D15, screening 26 mm
  sum of diameters of target lesions: 11 mm
[3]; Subject 403, C2D15
  decrease in sum of diameters compared to screening: 19.3%
[3]; Subject 403, C2D15, screening 88 mm
  sum of diameters of target lesions: 71 mm
[3]; Subject 403, C4D15
  decrease in sum of diameters compared to screening: 35.2%
[3]; Subject 403, C6D15
  decrease in sum of diameters compared to screening: 36.4%
[3]; Subject 403, second post-baseline scan (C4D15), screening 88 mm
  sum of diameters of target lesions: 57 mm
[3]; Subject 403, third post-baseline scan (C6D15), screening 88 mm
  sum of diameters of target lesions: 56 mm
[3]; Subject 406, C2D15
  decrease in sum of diameters compared to screening: 46.8%
[3]; Subject 406, C2D15, screening 32 mm
  sum of diameters of target lesions: 17 mm
[4]; NSCLC, 2.2 mg/kg dose
  patients with a partial response: 1
[4]; all tumor types
  patients with a partial response: Three
[4]; ovarian, 1.5 and 2.4 mg/kg dose levels
  patients with a partial response: 2
[4]; single agent, pre-treated patients with solid tumors
  antitumor activity: encouraging preliminary antitumor activity
[5]; 1Q3W arm
  Maximum Tolerated Dose (MTD): 2.2 mg/kg
[5]; 1Q3W dosing regime
  Recommended Phase 2 Dose (RP2D): 2.2 mg/kg
[5]; 3Q4W arm
  Maximum Tolerated Dose (MTD): 1.0 mg/kg
[5]; 47 patients enrolled
  number of DLTs: 6
[5]; % of 47 patients
  Adverse Effects (any grade): constipation: 57%
  Adverse Effects (any grade): decreased appetite: 43%
  Adverse Effects (any grade): diarrhea: 47%
  Adverse Effects (any grade): fatigue: 64%
  Adverse Effects (any grade): nausea: 57%
  Adverse Effects (any grade): vomiting: 45%
[6]; 18 patients treated
  Disease Control Rate (DCR): 39%
  Objective Response Rate (unconfirmed): 5.5%
[6]; of 18 patients treated
  patients with Best Overall Response (BoR) of unconfirmed PR: 1
  patients with BoR of PD: 6
  patients with BoR of SD: 6
[7]
  median elimination half-life: 22 to 52.8 h
